Source: patent publication US20240316012A1, “METHODS FOR TREATING LYMPHOMA” (Northwestern University, priority 2023, published 2024)

Columns and labels:
Assay type in all cases: cell-based, mouse
[1] = system: AP-1 family transcription factors; experiment: ATAC-seq transcription factor footprint analysis after inhibitor incubation; conditions: BMS-303141 5 μM, 3 hours in vitro vs DMSO
Procedure: Preparation of mouse and human ATAC-seq libraries. Ex vivo: For mouse ATAC-seq, ITK-SYK^CD4-creERT2, or ITK-SYK^CD4-creERT2; Pdcd1^−/− mice received a single dose of 2 mg tamoxifen. Five days after injection, single-cell suspensions were generated from the spleens and 50,000 eGFP^+ FACS-sorted cells were used for the transposase reaction. For human ATAC-seq, 50,000 malignant cells from CTCL patients with and without PDCD1 mutation were sorted by FACS as described above. The transposase reaction was performed as previously described^81. […] The reaction was monitored after 4 cycles with qPCR using 5 μl PCR reaction mixture and the same primers in 15 μl total volume (KK4617, Roche). Cycles were added as calculated, then the amplified samples were purified, and size selected using SpeedBeads (GE65152105050250, Sigma) in 22% PEG. […]
ATAC-seq analysis. […] Next, reads were aligned to the mm9 genome using Bowtie2 (v2.4.0)^71. […] To filter properly mapped reads, Applicants used Samtools with the following options: exclude multi-mapped reads (MAPQ<30) and reads with flag 1796 or 1804. Next, Samtools with option “-f 2” was used to filter properly paired reads. […] Next, Applicants filtered for nucleosome-free reads (0-100 bp) as previously described^44. […]

[2] = system: ITK-SYK^+PD-1^− lymphoma cells; experiment: In vitro survival of PD-1 deficient lymphoma cells under inhibitor treatment; conditions: FIGS. 10D-F
Procedure: (§1) Cell culture. Unless otherwise indicated, murine cells were cultured in DMEM containing 20% FCS. The following compounds were used for the in vitro experiments: glycolysis inhibitor 2-deoxy-D-glucose (D8375, Sigma), mTOR inhibitor Torin-1 (S2827, Selleckchem), HIF1α inhibitor PX-478 2HCl (S7612, Selleckchem), ATP citrate lyase inhibitor BMS-303141 (4609, Tocris), fatty acid synthase inhibitor FT113 (S6666, Selleckchem), and BET-p300/CBP dual inhibitor NE02734 (S9648, Selleckchem). Inhibitors were dissolved in DMSO or water, and the cell culture medium was supplemented with the indicated concentrations of the compound or DMSO/water (as control).
To determine whether ACLY activity is required for PD-1-deficient lymphoma cell survival, Applicants next incubated transformed ITK-SYK^+PD-1− T cells from tamoxifen-injected ITK-SYK^CD4-creERT2; Pdcd1^−/− mice with an ACLY inhibitor. This treatment killed the ITK-SYK^+PD-1^− lymphoma cells (FIG. 11F, p=0.0037).

[3] = system: ITK-SYK^+PD-1− cells; experiment: Lactate production of ITK-SYK+PD-1− cells incubated with small molecule inhibitors; conditions: ITK-SYK+PD-1− cells in vitro; FIGS. 10A-C
Procedure: as §1
To test the dependency of fully transformed lymphomas with Pdcd1 deletion on the released mTOR-HIF1α-glycolysis cascade, Applicants incubated ITK-SYK^+PD-1− cells with small molecule inhibitors of mTOR, HIF1α, or glycolysis^22,23.

**Q.** Which “AP-1 footprints in Pdcd1 deleted cells in comparison to cells with intact PD-1 pathway” value [1] does the source give for `COc1ccc(-c2ccccc2)cc1NS(=O)(=O)c1cc(Cl)cc(Cl)c1O` [BMS-303141] here?
**A.** de-enriched

**Q.** What does the source list for `O=CC[C@@H](O)[C@H](O)[C@H](O)CO` [2-DG, 2-deoxy-D-glucose]?
**A.** toxicity to PD-1 deficient lymphoma cells [2]: toxic; production of lactate [3]: reduced the production of lactate
